Results on two compounds are retold here after ChEMBL document CHEMBL4420078, “Sos1 inhibitors for cancer treatment” (2016).

Series [1] concerns MIA PaCa-2. Kind of series: Effect on total EGFR protein levels in overnight serum-starved human MIAPaCa2 cells at 20 to 40 uM by Western blotting analysis. It counts as ADME, cell-based. The note with it: mia paca-2, 40 µM. In general terms: A western blot detects proteins with antibodies after separation by electrophoresis.
A further series relates to BXPC-3. Kind of series: Antiproliferative activity against human BxPC3 cells assessed as reduction in cell number incubated for 3 days by MTS assay. It counts as functional, cell-based.
Series [2] concerns MIA PaCa-2. Kind of series: Effect on total ERK protein levels in overnight serum-starved human MIAPaCa2 cells at 20 to 60 uM incubated for 2 hrs by Western blotting analysis. The series is classed as ADME, cell-based. The note with it: mia paca-2, 2 h.
Series [3] addresses T1, Son of sevenless homolog 1 (Mus musculus) (UniProt Q62245).
T1 sequence (whole entry): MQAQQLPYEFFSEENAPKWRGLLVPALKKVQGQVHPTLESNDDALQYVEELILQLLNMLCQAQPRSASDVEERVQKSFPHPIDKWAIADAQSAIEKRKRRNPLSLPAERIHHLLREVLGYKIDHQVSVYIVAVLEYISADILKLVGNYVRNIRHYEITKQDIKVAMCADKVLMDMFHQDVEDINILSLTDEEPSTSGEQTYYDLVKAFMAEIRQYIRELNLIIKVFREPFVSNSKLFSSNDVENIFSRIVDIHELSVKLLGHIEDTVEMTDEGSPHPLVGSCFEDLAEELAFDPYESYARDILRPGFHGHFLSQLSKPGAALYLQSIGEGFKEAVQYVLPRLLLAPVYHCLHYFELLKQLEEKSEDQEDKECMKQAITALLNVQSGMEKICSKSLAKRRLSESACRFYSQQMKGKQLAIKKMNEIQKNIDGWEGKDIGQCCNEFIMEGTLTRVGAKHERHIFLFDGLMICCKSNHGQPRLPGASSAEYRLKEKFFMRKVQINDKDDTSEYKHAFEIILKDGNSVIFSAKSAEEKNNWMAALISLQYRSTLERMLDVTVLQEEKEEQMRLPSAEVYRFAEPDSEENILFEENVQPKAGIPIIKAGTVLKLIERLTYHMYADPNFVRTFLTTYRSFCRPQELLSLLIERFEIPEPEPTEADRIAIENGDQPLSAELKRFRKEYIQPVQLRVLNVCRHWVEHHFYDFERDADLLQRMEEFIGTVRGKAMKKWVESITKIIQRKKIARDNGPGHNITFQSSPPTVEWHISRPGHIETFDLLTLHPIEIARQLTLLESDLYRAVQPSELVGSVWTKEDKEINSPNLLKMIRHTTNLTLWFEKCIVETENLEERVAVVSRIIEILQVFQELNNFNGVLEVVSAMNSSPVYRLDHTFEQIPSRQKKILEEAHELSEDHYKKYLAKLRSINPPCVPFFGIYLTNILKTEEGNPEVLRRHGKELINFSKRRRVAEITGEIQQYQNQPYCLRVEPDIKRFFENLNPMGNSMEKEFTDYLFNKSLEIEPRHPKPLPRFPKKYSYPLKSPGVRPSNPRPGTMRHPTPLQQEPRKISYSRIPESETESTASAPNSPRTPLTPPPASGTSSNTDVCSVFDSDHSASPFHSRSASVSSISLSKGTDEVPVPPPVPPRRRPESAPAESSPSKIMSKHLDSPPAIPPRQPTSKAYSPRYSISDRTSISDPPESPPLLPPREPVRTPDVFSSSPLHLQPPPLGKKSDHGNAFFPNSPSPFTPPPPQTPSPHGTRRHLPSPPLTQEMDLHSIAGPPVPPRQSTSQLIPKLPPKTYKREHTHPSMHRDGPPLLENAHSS
Kind of series: Inhibition of SOS1 in overnight serum-starved mouse NIH/3T3 cells assessed as reduction in ERK1/2 phosphorylation at 20 to 100 uM pre-incubated for 2 hrs before EGF stimulation for 5 mins by Western blot analysis.

For series [4], the target named is T1, Son of sevenless homolog 1 (Mus musculus). The series can be described thus: Inhibition of SOS1 in overnight serum-starved mouse MEF assessed as reduction in cell proliferation at 10 to 40 uM incubated for 3 days by MTS assay. The series is classed as cell-based. For orientation: Formazan colour is commonly taken as a measure of viable cells.
Series [5] shares this target. Kind of series: Inhibition of SOS1 in mouse NIH/3T3 cells assessed as reduction in EGFR phosphorylation at 20 to 100 uM pre-incubated for 2 hrs before EGF stimulation for 5 mins by Western blot analysis. The series is classed as cell-based.
Series [6] has the same target. Kind of series: Inhibition of SOS1 in overnight serum-starved mouse NIH/3T3 cells assessed as effect on Rac1-GTP levels at 20 to 50 uM pre-incubated for 2 hrs before EGF stimulation for 5 mins by GST-Raf1 effector domain pulldown assay.
For the next series, the system named is HOP-92. The series can be described thus: Antiproliferative activity against human HOP92 cells assessed as reduction in cell number incubated for 48 hrs by MTS assay. The series is classed as functional, cell-based.

SMILES strings stand for the structures. The source made the active and inactive calls. No cut-off for these calls is given here.

With `O=[N+]([O-])c1ccccc1/C=C/C=C1c2ccccc2-c2ccccc21`, the Activity result in the series with MIA PaCa-2 [1] was “Non-Toxic”; in the series with BXPC-3, “Dose-dependent effect”.
In the case of `O=C1Oc2ccccc2C(=O)/C1=C/N1C(=O)/C(=C/c2ccc([N+](=O)[O-])cc2)SC1=S`, in the series with MIA PaCa-2 [2], the Activity entry is given as “Non-Toxic”. Also, the inhibition entry in series [3], in series [4] and in series [5] was “Active” throughout. Further, the inhibition entry in series [6] was “inactive”. Besides, the result in the series with HOP-92 was Active.
